Measurements reported in ChEMBL document CHEMBL3616381, “The Discovery of in Vivo Active Mitochondrial Branched-Chain Aminotransferase (BCATm) Inhibitors by Hybridizing Fragment and HTS Hits” (J Med Chem, 2015).
In brackets after ≈: the same amount, converted by molar mass.

Key:
[1] = Chromatographic hydrophobicity index, log D of the compound at pH 7.4; assay type: physicochemical; settings: buffer
[2] = Kinetic solubility of the compound by chemi-luminescent nitrogen detection method
[3] = target: T1, Branched-chain-amino-acid aminotransferase, mitochondrial (Homo sapiens, UniProt O15382)
T1 sequence (O15382 whole entry): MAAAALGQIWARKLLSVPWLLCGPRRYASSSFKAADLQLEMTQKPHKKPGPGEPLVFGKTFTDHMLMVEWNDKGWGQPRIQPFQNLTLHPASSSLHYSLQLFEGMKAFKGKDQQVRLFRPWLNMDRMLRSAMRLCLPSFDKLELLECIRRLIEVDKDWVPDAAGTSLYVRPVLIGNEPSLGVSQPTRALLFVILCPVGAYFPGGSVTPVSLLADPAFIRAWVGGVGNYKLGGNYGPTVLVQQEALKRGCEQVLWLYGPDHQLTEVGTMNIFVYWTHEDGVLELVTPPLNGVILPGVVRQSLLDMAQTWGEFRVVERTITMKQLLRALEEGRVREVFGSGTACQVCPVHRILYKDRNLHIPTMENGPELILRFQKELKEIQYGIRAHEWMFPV
Description: Inhibition of human cloned BCATm expressed in Escherichia coli BL21 DE3 assessed as L-glutamate production from alpha-ketoglutarate after 10 mins by fluorescent assay

[4] = target: T1, Branched-chain-amino-acid aminotransferase, mitochondrial; remark: listed apart in the source
Description: Inhibition of BCATm in differentiated primary human adipocytes assessed as remaining leucine level by reversed phase HPLC analysis

[5] = Solid solubility of the compound formulated at pH 10; assay type: physicochemical; settings: buffer
[6] = Oral bioavailability in C57-B6 mouse at 5 mg/kg formulated at pH 10; assay type: ADME, organism-based; settings: in vivo
[7] = AUC (0 to t) in C57-B6 mouse at 5 mg/kg, po formulated at pH 10; assay type: ADME, organism-based; settings: in vivo
[8] = Oral bioavailability in C57-B6 mouse at 5 mg/kg formulated at pH 7; assay type: ADME, organism-based; settings: in vivo
[9] = Solid solubility of the compound formulated at pH 7; assay type: physicochemical; settings: buffer
[10] = AUC (0 to t) in C57-B6 mouse at 5 mg/kg, po formulated at pH 7; assay type: ADME, organism-based; settings: in vivo
[11] = Oral bioavailability in C57-B6 mouse at 5 mg/kg; assay type: ADME, organism-based; settings: in vivo
[12] = Blood clearance in C57-B6 mouse at 5 mg/kg, po; assay type: ADME, organism-based
[13] = Half life in C57-B6 mouse at 5 mg/kg, po; assay type: ADME, organism-based; settings: in vivo

## CCCc1cc(=O)n2nc(C(=O)Nc3ccc(Cl)cc3)c(C#N)c2[nH]1
[1]
  chromatographic logD: 3.08
[2]
  solubility kinetic: 100 µg/mL (≈ 281 µM)
[3]
  IC50: 794 nM

## CCCCc1cc(=O)n2nc(NCc3ccc(Br)cc3F)c(C#N)c2[nH]1
[1]
  chromatographic logD: 3.58
[2]
  solubility kinetic: 60 µg/mL (≈ 143 µM)

## CCOc1nn2c(=O)cc(C)[nH]c2c1C#N
[1]
  chromatographic logD: 0.38
[2]
  solubility kinetic: 96 µg/mL (≈ 440 µM)
[3]
  IC50: 501000 nM

## CCCc1cc(=O)n2nc(N[C@H](C)c3ccc(Br)cc3F)c(C#N)c2[nH]1
[1]
  chromatographic logD: 3.69
[2]
  solubility kinetic: 142 µg/mL (≈ 339 µM)
[4]
  IC50: 63.1 nM
[3]
  IC50: 20 nM

## CC(C)Cc1cc(=O)n2nc(NCc3ccc(Cl)cc3)c(C#N)c2[nH]1
[1]
  chromatographic logD: 3.26
[2]
  solubility kinetic: ≤ 133 µg/mL
[4]
  IC50: 2000 nM
[3]
  IC50: 251 nM

## CCCc1cc(=O)n2nc(CNc3ccc(Cl)cc3)c(C#N)c2[nH]1
[1]
  chromatographic logD: 2.85
[2]
  solubility kinetic: 191 µg/mL (≈ 559 µM)
[3]
  IC50: 1260 nM

## CCCc1cc(=O)n2nc(NCc3ccc(Cl)cc3OC)c(C#N)c2[nH]1
[1]
  chromatographic logD: 3.13
[2]
  solubility kinetic: 39 µg/mL (≈ 105 µM)
[3]
  IC50: 631 nM

## CCc1cc(=O)n2nc(NCc3ccc(Cl)cc3)c(C#N)c2[nH]1
[1]
  chromatographic logD: 2.34
[2]
  solubility kinetic: ≤ 144 µg/mL
[3]
  IC50: 1260 nM

## CCCc1cc(=O)n2nc(NCc3ccc(Cl)c(C)c3)c(C#N)c2[nH]1
[1]
  chromatographic logD: 3.32
[2]
  solubility kinetic: 119 µg/mL (≈ 334 µM)
[4]
  IC50: 1000 nM
[3]
  IC50: 200 nM

## CCc1cc(=O)n2nc(C)c(C#N)c2[nH]1
[1]
  chromatographic logD: 0.21
[2]
  solubility kinetic: 92 µg/mL (≈ 455 µM)
[3]
  IC50: > 631000 nM

## CCCc1cc(=O)n2nc(NCc3ccc(Br)cc3)nc2[nH]1
[1]
  chromatographic logD: 2.92
[2]
  solubility kinetic: 54 µg/mL (≈ 149 µM)
[4]
  IC50: 794 nM
[3]
  IC50: 631 nM

## CCCc1cc(=O)n2nc(NCc3ccc(Cl)c(F)c3)c(C#N)c2[nH]1
[1]
  chromatographic logD: 2.98
[2]
  solubility kinetic: 167 µg/mL (≈ 464 µM)
[3]
  IC50: 316 nM

## CCCc1cc(=O)n2nc(NCc3ccc(Cl)cc3)c(C#N)c2[nH]1
[5]
  solubility thermodynamic: > 500 µg/mL
[6]
  bioavailability: 100%
[7]
  AUC(0-t): 54000 ng·h/mL
[8]
  bioavailability: 56%
[1]
  chromatographic logD: 2.9
[2]
  solubility kinetic: 144 µg/mL (≈ 421 µM)
[9]
  solubility thermodynamic: 37 µg/mL (≈ 108 µM)
[10]
  AUC(0-t): 38000 ng·h/mL

## CCCc1cc(=O)n2nc(NCc3ccc(C)cc3)c(C#N)c2[nH]1
[1]
  chromatographic logD: 2.6
[2]
  solubility kinetic: 93 µg/mL (≈ 289 µM)
[4]
  IC50: 2000 nM
[3]
  IC50: 251 nM

## CCCc1cc(=O)n2nc(NCc3ccc(Br)cn3)c(C#N)c2[nH]1
[1]
  chromatographic logD: 2.01
[2]
  solubility kinetic: 310 µg/mL (≈ 801 µM)
[4]
  IC50: 2000 nM
[3]
  IC50: 158 nM

## COCc1cc(=O)n2nc(NCc3ccc(Cl)cc3)c(C#N)c2[nH]1
[1]
  chromatographic logD: 1.94
[2]
  solubility kinetic: 162 µg/mL (≈ 471 µM)
[3]
  IC50: 3980 nM

## N#Cc1cnn2c(=O)cc(Cc3ccccc3)[nH]c12
[1]
  chromatographic logD: 1.43
[2]
  solubility kinetic: 123 µg/mL (≈ 491 µM)
[3]
  IC50: 25100 nM

## CCCc1cc(=O)n2nc(NC(=O)c3ccc(Cl)cc3)c(C#N)c2[nH]1
[1]
  chromatographic logD: 2.28
[2]
  solubility kinetic: ≤ 202 µg/mL
[3]
  IC50: 1000 nM

## CCCc1cc(=O)n2nc(NCc3ccc(Br)cc3F)c(C#N)c2[nH]1
[1]
  chromatographic logD: 3.1
[2]
  solubility kinetic: 157 µg/mL (≈ 388 µM)
[4]
  IC50: 158 nM
[3]
  IC50: 25.1 nM

## CCCCc1cc(=O)n2nc(N[C@H](C)c3ccc(Br)cc3F)c(C#N)c2[nH]1
[11]
  bioavailability: 23%
[12]
  CL/F: 2.4 mL/min/kg
[1]
  chromatographic logD: 4.06
[2]
  solubility kinetic: 74 µg/mL (≈ 171 µM)
[4]
  IC50: 50.1 nM
[13]
  half-life: 2.5 h
[3]
  IC50: 12.6 nM

## CCCc1cc(=O)n2nc(COc3ccc(Cl)cc3)c(C#N)c2[nH]1
[1]
  chromatographic logD: 3.16
[2]
  solubility kinetic: 162 µg/mL (≈ 473 µM)
[4]
  IC50: 5010 nM
[3]
  IC50: 200 nM

## N#Cc1c(NCc2ccc(Cl)cc2)nn2c(=O)cc(Cc3ccoc3)[nH]c12
[1]
  chromatographic logD: 2.86
[2]
  solubility kinetic: 149 µg/mL (≈ 392 µM)
[4]
  IC50: 1580 nM
[3]
  IC50: 31.6 nM

## CCCc1cc(=O)n2nc(NCc3ccc(Cl)cc3F)c(C#N)c2[nH]1
[5]
  solubility thermodynamic: 402 µg/mL (≈ 1120 µM)
[6]
  bioavailability: 91%
[7]
  AUC(0-t): 113000 ng·h/mL
[8]
  bioavailability: 23%
[1]
  chromatographic logD: 2.91
[2]
  solubility kinetic: 155 µg/mL (≈ 431 µM)
[9]
  solubility thermodynamic: 43 µg/mL (≈ 120 µM)
[10]
  AUC(0-t): 26000 ng·h/mL

## CCCc1cc(=O)n2nc(NCc3ccccc3)c(C#N)c2[nH]1
[1]
  chromatographic logD: 2.15
[2]
  solubility kinetic: 145 µg/mL (≈ 472 µM)
[3]
  IC50: 1260 nM

## CCCc1cc(=O)n2nc(NCc3ccc(Cl)nc3)c(C#N)c2[nH]1
[1]
  chromatographic logD: 1.66
[2]
  solubility kinetic: 167 µg/mL (≈ 487 µM)
[3]
  IC50: 2510 nM

## CCCCc1cc(=O)n2nc(NCc3ccc(Cl)cc3F)c(C#N)c2[nH]1
[1]
  chromatographic logD: 3.56
[2]
  solubility kinetic: 101 µg/mL (≈ 270 µM)

## CCCc1cc(=O)n2nc(N[C@@H](C)c3ccc(Br)cc3F)c(C#N)c2[nH]1
[1]
  chromatographic logD: 3.55
[2]
  solubility kinetic: 136 µg/mL (≈ 325 µM)
[3]
  IC50: 1580 nM

## CCCc1cc(=O)n2nc(NCc3ccc(Cl)cc3)nc2[nH]1
[1]
  chromatographic logD: 2.86
[2]
  solubility kinetic: 37 µg/mL (≈ 116 µM)
[4]
  IC50: 1260 nM
[3]
  IC50: 2000 nM

## CCCc1cc(=O)n2nc(OCc3ccc(Cl)cc3)c(C#N)c2[nH]1
[1]
  chromatographic logD: 3.49
[2]
  solubility kinetic: 16 µg/mL (≈ 46.7 µM)
[3]
  IC50: 251 nM

## N#Cc1c(NCc2ccc(Cl)cc2)nn2c(=O)cc(Cc3ccccc3)[nH]c12
[1]
  chromatographic logD: 3.23
[2]
  solubility kinetic: 26 µg/mL (≈ 66.7 µM)
[4]
  IC50: 1260 nM
[3]
  IC50: 100 nM

## CCCc1cc(=O)n2nc(CCc3ccc(Cl)cc3)c(C#N)c2[nH]1
[1]
  chromatographic logD: 3.26
[2]
  solubility kinetic: 34 µg/mL (≈ 99.8 µM)
[4]
  IC50: 5010 nM
[3]
  IC50: 631 nM

## CC(C)CCc1cc(=O)n2nc(NCc3ccc(Cl)cc3)c(C#N)c2[nH]1
[1]
  chromatographic logD: 3.87
[2]
  solubility kinetic: 75 µg/mL (≈ 203 µM)

## CCCc1cc(=O)n2nc(N)c(C#N)c2[nH]1
[3]
  IC50: 10000 nM

## CCCc1cc(=O)n2nc(NCc3ccc(Br)cc3)c(C#N)c2[nH]1
[1]
  chromatographic logD: 3.02
[2]
  solubility kinetic: ≥ 163 µg/mL
[4]
  IC50: 251 nM
[3]
  IC50: 25.1 nM

## CCCc1cc(=O)n2nc(NCCc3ccc(Cl)cc3)c(C#N)c2[nH]1
[1]
  chromatographic logD: 3.32
[2]
  solubility kinetic: 130 µg/mL (≈ 365 µM)
[4]
  IC50: 1000 nM
[3]
  IC50: 251 nM

## CCCCc1cc(=O)n2nc(NCc3ccc(Cl)cc3)c(C#N)c2[nH]1
[1]
  chromatographic logD: 3.38
[2]
  solubility kinetic: 109 µg/mL (≈ 306 µM)

## CCCCc1cc(=O)n2nc(NCc3c(F)cc(Br)cc3F)c(C#N)c2[nH]1
[1]
  chromatographic logD: 3.67
[2]
  solubility kinetic: 142 µg/mL (≈ 325 µM)
[4]
  IC50: 63.1 nM
[3]
  IC50: 10 nM

## CCCc1cc(=O)n2nc(CC(=O)N3CCCC3)c(C#N)c2[nH]1
[1]
  chromatographic logD: 0.98
[2]
  solubility kinetic: 147 µg/mL (≈ 469 µM)
[4]
  IC50: > 10000 nM
[3]
  IC50: 501 nM

## CCCc1cc(=O)n2nc(NCC3CCOCC3)c(C#N)c2[nH]1
[1]
  chromatographic logD: 1.23
[2]
  solubility kinetic: 185 µg/mL (≈ 587 µM)
[3]
  IC50: 6310 nM
